We go through one compound from patent US8835415B2, “Standardized composition, method of manufacture and use in the resolution of RNA virus infection” (priority 2009, dated 2014).

A value given as a limit tells only on which side of the number the result lay.

This assay relates to H1N1 virus, Resistant strain (6706). Description: microbe, parasite or virus in culture. Type of assay: cell-based. The note with it: Influenza A virus, H1N1, MDCK.

Usually EC50 stands for the concentration that produces a half-maximal response. A higher EC50 goes with weaker potency.

In turn, `CCOC(=O)C1=C[C@@H](OC(CC)CC)[C@H](NC(C)=O)[C@@H](N)C1` [Tamiflu, Oseltamivir] returned an EC50 above 5 µM.
